Measured values published in PMC12592502, “Unraveling the mechanisms behind the enhanced efficacy of β-lactam-based sideromycins” (Communications Biology, 2025).
In brackets after ≈: the same amount, converted by molar mass.

Experiments:
E. coli ATCC 25922 = experiment: MIC, broth microdilution (CLSI); type: cell-based, Escherichia coli; conditions: for MIC ratio 0/1: 0 and 1 µg/mL supplemental iron (Table S2); for MIC ratio 1/0: 1 versus 0 µg/mL supplemental iron (peer review file table)
Method: (§1) All bacterial strains (see description and sources Table S1) were stored at −80 °C, and grown on tryptone soya agar (TSA) at 35 °C. The iron-deprived (ID)-MHBCA (cation-adjusted Muller-Hinton Broth, Becton Dickinson, Mississauga, ON, Canada) medium was prepared as reported by refs. [21],[50]. Briefly, MHBCA was treated with 10% Chelex® 50-100 mesh (Sigma) and stirred for 6 h at room temperature. The resin was removed by filtration. Divalent Ca^2+ (CaCl2), Mg^2+ (MgCl2), and Zn^2+(ZnSO4), were then added in the iron-depleted medium at 22, 12, and 1 μg/ml respectively. Finally, the pH was adjusted to 7.3, and the medium was sterilized with a 0.2-μm filter. Regular MHBCA (i.e., not treated with Chelex®) was used to compare the inhibitory activity of conjugates in iron-sufficient conditions.
(§2) Minimal inhibitory concentrations (MICs) were performed using a broth microdilution technique according to the Clinical and Laboratory Standards Institute (CLSI) guidelines. MICs were determined in MHBCA and in ID-MHBCA. To check the impact of β-lactamases, MICs in the presence of a β-lactamase inhibitor were also determined. The inhibitor was homogenized at 2X the final concentration and added to the bacterial inoculum just before distributing cells into the wells containing the drug dilutions. The final concentration of each inhibitor was 4 μg/mL for clavulanic acid (tested against K. pneumoniae) and 200 μg/mL for 3-aminophenylboronic acid (tested against P. aeruginosa and A. baumannii).

K. pneumoniae ATCC 13883 = experiment: MIC, broth microdilution (CLSI); type: cell-based, Klebsiella pneumoniae; conditions: for MIC with β-lactamase inhibitor (βI): + 4 μg/mL clavulanic acid; for MIC ratio 0/1: 0 and 1 µg/mL supplemental iron (Table S2); for MIC ratio 1/0: 1 versus 0 µg/mL supplemental iron (peer review file table)
Method: as §1, with “conditions. The resin used for Chelex treatment was always fresh and had never been regenerated, ensuring consistent iron removal.” for “conditions.”
as §2

E. coli ΔcirA = experiment: MIC, Keio mutant; type: cell-based, Escherichia coli
Method: as §1, §2

E. coli ΔfhuA = experiment: MIC, Keio mutant; type: cell-based, Escherichia coli
Method: as §1, §2

E. coli Δfiu = experiment: MIC, Keio mutant; type: cell-based, Escherichia coli
Method: as §1, §2

E. coli lptD4213 = experiment: MIC, hyperpermeable mutant; type: cell-based, Escherichia coli
Method: as §1, with “conditions. The resin used for Chelex treatment was always fresh and had never been regenerated, ensuring consistent iron removal.” for “conditions.”
as §2

PBP1a/1b = experiment: Membrane PBP binding assay, competition with Bocillin FL; conditions: K. pneumoniae ATCC 13883 membranes
Method: (§3) Membrane extracts containing PBPs were obtained as described above. Briefly, all species were grown in 1 L of TSB until the OD600 reached 0.9. The washed pellet was incubated with lysozyme (400 μg/mL), DNase (10 μg/mL) RNase(10 μg/mL) and anti-protease cocktail (200 mg/20 mL). Lysis was done with a French press (20,000 psi) and membrane protein were pelleted by ultracentrifugation steps (100,000 × g). The pellet was suspended in a minimal volume (300–500 μL) of KP 0.05 M buffer at pH 7. The protein concentration in the membrane preparations was determined with the Micro BCA TM Protein Assay Kit (Thermo Fisher Scientific, Rockford, IL) using bovine serum albumin as a standard.
(§4) The PBP binding assay was done as described previously[36],[56],[57]. For each antibiotic concentration tested, a quantity of 25 to 40 μg of membrane preparation was used as the source of PBPs, depending on the species. For the purified PaPBP3, 150 ng was used in the assay. First, increasing concentrations of the test antibiotic was added to the membrane or purified PaPBP3 preparations and incubated for 10 min at 30 °C. The reporter molecule Bocillin FL was then added at 12.5 μM for the membrane PBPs preparations and at 500 nM for the pure PaPBP3 samples for an additional 20 min at 30 °C. All reactions were stopped with the addition of the Laemmli-loading buffer (Bio-Rad) containing fresh β-mercaptoethanol (Sigma). All reactions were then heated at 100°C for 3 min before migration on SDS-polyacrylamide discontinuous gel system (7.5% stacking and 10% separating). Control samples without Bocillin FL were also included to highlight autofluorescent proteins that are not PBPs.
(§5) To be able to visualize labeled PBPs after electrophoresis, gels were rinsed in water and fixed in a solution of 50% methanol and 7% acetic acid for 30 min. The fluorescent images of gels were obtained with the Typhoon FLA 9500 instrument (GE-Healthcare Bio-Sciences Inc., Baie-d’Urfé, QC, CA) using a 473 nm excitation wavelength. To obtain quantifiable data, the software Quantity One 1D analysis was used (version 4.6.6; Bio-Rad Laboratories, Richmond, CA). The volume (intensity × constant area) of each PBP was measured. […] All IC50 data were obtained from at least two independent PBP binding assays using two different sets of compound concentrations using a linear regression. The PBP profiles were confirmed, and the PBP numbering were determined using published data and individual molecular weights. […] For example, amdinocillin (Sigma) was used for PBP2 identification. […] The IC50 for PBP 2 of P. aeruginosa was measured by including the SDS-PAGE comigrating autofluorescent protein in the background, as done previously.

PBP3 = biological target: T1, PBP3 (Pseudomonas aeruginosa, UniProt G3XD46); experiment: as above; conditions: P. aeruginosa ATCC 27853 membranes; read-out: IC50 PBP3
T1 construct: using bacterial membranes as the source of PBPs; endogenous in cells; host or cells: P. aeruginosa ATCC 27853 membrane preparation
Method: as §3, §4, §5

[1] = Escherichia coli, ATCC25922, MHBCA (+)
[2] = Escherichia coli, ATCC25922, iron-deprived ID-MHBCA (−), 0 µg/mL supplemental iron
[3] = iron-deprived ID-MHBCA (−), 0 µg/mL supplemental iron
[4] = ID-MHBCA (−), 0 µg/mL supplemental iron
[5] = Klebsiella pneumoniae, ATCC13883, ID-MHBCA (−), 0 µg/mL supplemental iron
[6] = Klebsiella pneumoniae, ATCC13883, ID-MHBCA + 1 µg/mL supplemental iron
[7] = Klebsiella pneumoniae, ATCC13883, MHBCA (+)
[8] = Escherichia coli, LPTD4213, lptD4213, ID-MHBCA (−)
[9] = Escherichia coli, LPTD4213, lptD4213, MHBCA (+)
[10] = ID-MHBCA + 0.1 µg/mL supplemental iron
[11] = ID-MHBCA + 1 µg/mL supplemental iron

T1 sequence (G3XD46 whole entry): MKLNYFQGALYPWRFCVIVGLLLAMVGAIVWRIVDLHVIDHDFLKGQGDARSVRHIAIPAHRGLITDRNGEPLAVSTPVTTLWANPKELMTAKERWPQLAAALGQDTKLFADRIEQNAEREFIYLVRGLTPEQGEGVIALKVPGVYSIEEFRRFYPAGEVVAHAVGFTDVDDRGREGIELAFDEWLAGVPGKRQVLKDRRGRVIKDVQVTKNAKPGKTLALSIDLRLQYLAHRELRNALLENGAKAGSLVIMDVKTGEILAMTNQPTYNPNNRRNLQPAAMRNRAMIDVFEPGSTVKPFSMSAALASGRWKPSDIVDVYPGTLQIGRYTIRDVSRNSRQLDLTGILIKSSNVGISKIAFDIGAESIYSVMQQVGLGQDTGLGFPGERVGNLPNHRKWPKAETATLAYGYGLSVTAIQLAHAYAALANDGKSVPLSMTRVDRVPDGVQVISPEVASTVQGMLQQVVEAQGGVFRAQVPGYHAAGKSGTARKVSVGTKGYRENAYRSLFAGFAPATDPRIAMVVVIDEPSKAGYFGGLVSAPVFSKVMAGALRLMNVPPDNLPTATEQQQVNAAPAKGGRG

Compound	MIC (E. coli ATCC 25922; [1]) [µM]	MIC (E. coli ATCC 25922; [2]) [µM]	MIC (E. coli ATCC 25922; [3]) [µM]	MIC (K. pneumoniae ATCC 13883; [4]) [µM]	MIC with β-lactamase inhibitor (βI) (K. pneumoniae ATCC 13883; ID-MHBCA) [µM]	MIC (K. pneumoniae ATCC 13883; [5]) [µM]	MIC (K. pneumoniae ATCC 13883; [6]) [µM]	MIC (K. pneumoniae ATCC 13883; [7]) [µM]	MIC (K. pneumoniae ATCC 13883; MHBCA (+)) [µM]	MIC with β-lactamase inhibitor (βI) (K. pneumoniae ATCC 13883; MHBCA) [µM]	MIC (E. coli ΔcirA; Escherichia coli, ID-MHBCA) [µM]	MIC (E. coli ΔcirA; Escherichia coli, MHBCA) [µM]	MIC (E. coli ΔcirA; MHBCA) [µM]	MIC (E. coli ΔfhuA; Escherichia coli, ID-MHBCA) [µM]	MIC (E. coli ΔfhuA; Escherichia coli, MHBCA) [µM]	MIC (E. coli Δfiu; Escherichia coli, ID-MHBCA) [µM]	MIC (E. coli Δfiu; Escherichia coli, MHBCA) [µM]	MIC (E. coli lptD4213; [8]) [µM]	IC50 (PBP1a/1b) [µM]	IC50 (PBP3) [µM]	also measured
O=C(CCC(=O)N(CCCCNC(=O)c1cccc(O)c1O)CCCNC(=O)c1cccc(O)c1O)NCCCCCN(O)C(=O)CCCC(=O)NC(C(=O)NC1C(=O)N2C(C(=O)O)=C(Cl)CSC12)c1ccccc1 (stereo not drawn) [MCEF, mixed ligand bis-catechol-mono-hydroxamate-cefaclor]	6.3 to 25 (≈ 6.81 to 27 µg/mL)	> 200	>200	>200	200	> 200	> 200	> 200	>200	13	> 200	> 200	>200	> 200	13 (≈ 14.1 µg/mL)	> 200	100 (≈ 108 µg/mL)	1.6 (≈ 1.73 µg/mL)	0.35 ± 0.02	2.01 ± 0.48	MIC (E. coli ATCC 25922; Escherichia coli, ATCC25922, ID-MHBCA + 1 µg/mL supplemental iron): 25 µM; MIC ratio unconjugated β-lactam/conjugate (E. coli ATCC 25922; ID-MHBCA): <0.016; MIC ratio unconjugated β-lactam/conjugate (K. pneumoniae ATCC 13883; ID-MHBCA): <0.016; MIC ratio unconjugated β-lactam/conjugate (K. pneumoniae ATCC 13883; MHBCA): <0.016; MIC (E. coli lptD4213; [9]): 1.6 µM (≈ 1.73 µg/mL)
N[C@@H](C(=O)N[C@@H]1C(=O)N2C(C(=O)O)=C(Cl)CC[C@H]12)c1ccccc1 [LOR, loracarbef, reference compound]			1.6 (≈ 0.56 µg/mL)	1.6 (≈ 0.56 µg/mL)	1.6				1.6 (≈ 0.56 µg/mL)	1.6			13 (≈ 4.55 µg/mL)						4.5 ± 2.1	> 50	MIC (E. coli ATCC 25922; [10]): 3.1 µM; MIC (E. coli ATCC 25922; [11]): 3.1 µM; MIC ratio 0/1 (E. coli ATCC 25922; ID-MHBCA): 2; MIC ratio 1/0 (E. coli ATCC 25922; ID-MHBCA): 2; MIC (E. coli ATCC 25922; MHBCA (+)): 3.1 µM (≈ 1.08 µg/mL); MIC (K. pneumoniae ATCC 13883; [10]): 1.6 µM; MIC (K. pneumoniae ATCC 13883; [11]): 3.1 µM; MIC ratio 0/1 (K. pneumoniae ATCC 13883; ID-MHBCA): 2; MIC ratio 1/0 (K. pneumoniae ATCC 13883; ID-MHBCA): 2; MIC (E. coli ΔcirA; ID-MHBCA): 13 µM (≈ 4.55 µg/mL); MIC (E. coli ΔfhuA; ID-MHBCA): 6.3 µM (≈ 2.2 µg/mL); MIC (E. coli ΔfhuA; MHBCA): 6.3 µM (≈ 2.2 µg/mL); MIC (E. coli Δfiu; ID-MHBCA): 6.3 µM (≈ 2.2 µg/mL); MIC (E. coli Δfiu; MHBCA): 6.3 µM (≈ 2.2 µg/mL); MIC (E. coli lptD4213; lptD4213, ID-MHBCA (−)): 1.6 µM (≈ 0.56 µg/mL); MIC (E. coli lptD4213; lptD4213, MHBCA (+)): 1.6 µM (≈ 0.56 µg/mL)
N[C@@H](C(=O)N[C@@H]1C(=O)N2C(C(=O)O)=C(Cl)CS[C@H]12)c1ccccc1 [CEF, cefaclor, reference compound]	3.1 (≈ 1.14 µg/mL)	3.1 (≈ 1.14 µg/mL)			1.6	3.1 (≈ 1.14 µg/mL)	6.3	3.1 (≈ 1.14 µg/mL)		1.6	25 (≈ 9.2 µg/mL)	13 (≈ 4.78 µg/mL)		13 (≈ 4.78 µg/mL)	13 (≈ 4.78 µg/mL)	13 (≈ 4.78 µg/mL)	13 (≈ 4.78 µg/mL)	3.1 (≈ 1.14 µg/mL)	7.9 ± 1.5	39 ± 1.5	MIC (E. coli ATCC 25922; Escherichia coli, ATCC25922, ID-MHBCA + 0.1 µg/mL supplemental iron): 3.1 µM; MIC ratio 0/1 (E. coli ATCC 25922; ID-MHBCA): 1; MIC ratio 1/0 (E. coli ATCC 25922; ID-MHBCA): 1; MIC ratio 0/1 (K. pneumoniae ATCC 13883; ID-MHBCA): 2; MIC ratio 1/0 (K. pneumoniae ATCC 13883; ID-MHBCA): 2; MIC (K. pneumoniae ATCC 13883; Klebsiella pneumoniae, ATCC13883, ID-MHBCA + 0.1 µg/mL supplemental iron): 3.1 µM; MIC (E. coli lptD4213; [9]): 3.1 µM (≈ 1.14 µg/mL)
